Here are results for six molecules from ChEMBL document CHEMBL4145540 (Eur J Med Chem, 2018).

For one data set, the system named is HT-29. The experiment in a line: Antiproliferative activity against human HT-29 cells after 2 days by MTT assay. The following applies: HT-29, 48 h. It counts as functional, cell-based.
The next data set has as its system MCF7. The experiment in a line: Antiproliferative activity against human MCF7 cells after 2 days by MTT assay. Type of data set: functional, cell-based. The following applies: MCF7, 48 h. For orientation: Tetrazolium assays rely on reduction of a dye to a coloured formazan, in cell work by metabolically active cells.
Another data set has as its system HeLa. The experiment in a line: Antiproliferative activity against human HeLa cells after 2 days by MTT assay. It counts as functional, cell-based. The following applies: 48 h.
The subject of data set [1] is A549. Kind of data set: Antiproliferative activity against human A549 cells after 2 days by MTT assay. It counts as functional, cell-based. The following applies: A549, 48 h.
The subject of another data set is HL-60. The experiment in a line: Antiproliferative activity against human HL60 cells after 2 days by MTT assay. It counts as functional, cell-based. The following applies: HL-60, 48 h.
A further data set has as its system HMEC-1. The experiment in a line: Antiproliferative activity against HMEC1 cells after 2 days by MTT assay. It counts as functional, cell-based. The following applies: Homo sapiens, HMEC-1, 48 h.
The test system of a further data set is HEK293. The experiment in a line: Antiproliferative activity against HEK293 cells after 2 days by MTT assay. The following applies: Homo sapiens, HEK293, 48 h. Type of data set: cell-based.
In the next data set the test system is MDA-MB-231. The experiment in a line: Antiproliferative activity against human MDA-MB-231 cells after 3 days by coulter counting method. Type of data set: functional, cell-based. The following applies: MDA-MB-231, 72 h.
The test system of data set [2] is A549. Kind of data set: Cell cycle arrest in human A549 cells assessed as accumulation at sub-G0 phase at 70 nM after 20 hrs by propidium iodide staining based flow cytometry (reference value: 6.6 +/- 0.1%). It counts as functional. Background: Flow cytometry measures light scatter and fluorescence of single cells or particles in a stream.
The test system of data set [3] is A549. The experiment in a line: Cell cycle arrest in human A549 cells assessed as accumulation at G0/G1 phase at 70 nM after 20 hrs by propidium iodide staining based flow cytometry (reference value: 66 +/- 1%). Type of data set: functional.
Data set [4] deals with A549. The experiment in a line: Cell cycle arrest in human A549 cells assessed as accumulation at S phase at 70 nM after 20 hrs by propidium iodide staining based flow cytometry (reference value: 16 +/- 1%). Type of data set: functional.
Data set [5] has as its system A549. Kind of data set: Cell cycle arrest in human A549 cells assessed as accumulation at G2/M phase at 70 nM after 20 hrs by propidium iodide staining based flow cytometry (reference value: 11 +/- 1%). Type of data set: functional.
For a further data set, the species on record is Bos taurus. The experiment in a line: Inhibition of calf brain tubulin polymerization after 60 mins by turbidimetric method.
Data set [6] relates to A549. Kind of data set: Cell cycle arrest in human A549 cells assessed as accumulation at sub-G0 phase at 45 nM after 20 hrs by propidium iodide staining based flow cytometry (reference value: 6.6 +/- 0.1%). It counts as functional.
Data set [7] relates to A549. The experiment in a line: Cell cycle arrest in human A549 cells assessed as accumulation at G0/G1 phase at 45 nM after 20 hrs by propidium iodide staining based flow cytometry (reference value: 66 +/- 1%). It counts as functional.
Data set [8] concerns A549. The experiment in a line: Cell cycle arrest in human A549 cells assessed as accumulation at S phase at 45 nM after 20 hrs by propidium iodide staining based flow cytometry (reference value: 16 +/- 1%). Type of data set: functional.
For data set [9], the system named is A549. The experiment in a line: Cell cycle arrest in human A549 cells assessed as accumulation at G2/M phase at 45 nM after 20 hrs by propidium iodide staining based flow cytometry (reference value: 11 +/- 1%). It counts as functional.
The test system of data set [10] is A549. The experiment in a line: Induction of apoptosis in human A549 cells at 100 nM after 24 hrs by Annexin V-FITC/propidium iodide staining based flow cytometry (reference value: 28%). Type of data set: functional.
In data set [11] the test system is A549. Kind of data set: Induction of apoptosis in human A549 cells at 10 nM after 24 hrs by Annexin V-FITC/propidium iodide staining based flow cytometry (reference value: 28%). It counts as functional.
For data set [12], the system named is A549. The experiment in a line: Induction of apoptosis in human A549 cells after 24 hrs by Annexin V-FITC/propidium iodide staining based flow cytometry. It counts as functional, cell-based.
Data set [13] is described as follows: Selectivity index, ratio of IC50 for antiproliferative activity against HEK293 cells to IC50 for antiproliferative activity against human MCF7 cells. It counts as toxicity, cell-based. The following applies: HEK293 cells versus MCF7 cells, read-out: Ratio IC50.
Data set [14] can be described thus: Selectivity index, ratio of IC50 for antiproliferative activity against HEK293 cells to IC50 for antiproliferative activity against human HT-29 cells. Type of data set: toxicity, cell-based. The following applies: HEK293 cells versus HT-29 cells, read-out: Ratio IC50.
Data set [15] in a line: Selectivity index, ratio of IC50 for antiproliferative activity against HEK293 cells to IC50 for antiproliferative activity against human HeLa cells. It counts as toxicity, cell-based. The following applies: HEK293 cells versus HeLa cells, read-out: Ratio IC50.
The nature of data set [16]: Selectivity index, ratio of IC50 for antiproliferative activity against HEK293 cells to IC50 for antiproliferative activity against human HL60 cells. Type of data set: toxicity, cell-based. The following applies: HEK293 cells versus HL60 cells, read-out: Ratio IC50.
In data set [17] the test system is A549. The experiment in a line: Cell cycle arrest in human A549 cells assessed as accumulation at sub-G0 phase at 135 nM after 20 hrs by propidium iodide staining based flow cytometry (reference value: 6.6 +/- 0.1%). Type of data set: functional.
The subject of data set [18] is A549. The experiment in a line: Cell cycle arrest in human A549 cells assessed as accumulation at G0/G1 phase at 135 nM after 20 hrs by propidium iodide staining based flow cytometry (reference value: 66 +/- 1%). It counts as functional.
In data set [19] the test system is A549. Kind of data set: Cell cycle arrest in human A549 cells assessed as accumulation at S phase at 135 nM after 20 hrs by propidium iodide staining based flow cytometry (reference value: 16 +/- 1%). It counts as functional.
Data set [20] concerns A549. The experiment in a line: Cell cycle arrest in human A549 cells assessed as accumulation at G2/M phase at 135 nM after 20 hrs by propidium iodide staining based flow cytometry (reference value: 11 +/- 1%). It counts as functional.
Data set [21] deals with A549. The experiment in a line: Cell cycle arrest in human A549 cells assessed as accumulation at sub-G0 phase at 2000 nM after 20 hrs by propidium iodide staining based flow cytometry (reference value: 6.6 +/- 0.1%). It counts as functional.
The subject of data set [22] is A549. The experiment in a line: Cell cycle arrest in human A549 cells assessed as accumulation at G0/G1 phase at 2000 nM after 20 hrs by propidium iodide staining based flow cytometry (reference value: 66 +/- 1%). It counts as functional.
Data set [23] relates to A549. Kind of data set: Cell cycle arrest in human A549 cells assessed as accumulation at G2/M phase at 2000 nM after 20 hrs by propidium iodide staining based flow cytometry (reference value: 11 +/- 1%). It counts as functional.
Data set [24] relates to A549. Kind of data set: Cell cycle arrest in human A549 cells assessed as accumulation at sub-G0 phase at 650 nM after 20 hrs by propidium iodide staining based flow cytometry (reference value: 6.6 +/- 0.1%). It counts as functional.
In data set [25] the test system is A549. Kind of data set: Cell cycle arrest in human A549 cells assessed as accumulation at G0/G1 phase at 650 nM after 20 hrs by propidium iodide staining based flow cytometry (reference value: 66 +/- 1%). It counts as functional.
Data set [26] has as its system A549. The experiment in a line: Cell cycle arrest in human A549 cells assessed as accumulation at S phase at 650 nM after 20 hrs by propidium iodide staining based flow cytometry (reference value: 16 +/- 1%). It counts as functional.
In data set [27] the test system is A549. The experiment in a line: Cell cycle arrest in human A549 cells assessed as accumulation at G2/M phase at 650 nM after 20 hrs by propidium iodide staining based flow cytometry (reference value: 11 +/- 1%). It counts as functional.
The test system of data set [28] is A549. The experiment in a line: Cell cycle arrest in human A549 cells assessed as accumulation at sub-G0 phase at 450 nM after 20 hrs by propidium iodide staining based flow cytometry (reference value: 6.6 +/- 0.1%). It counts as functional.
Data set [29] relates to A549. Kind of data set: Cell cycle arrest in human A549 cells assessed as accumulation at G0/G1 phase at 450 nM after 20 hrs by propidium iodide staining based flow cytometry (reference value: 66 +/- 1%). Type of data set: functional.
Data set [30] deals with A549. Kind of data set: Cell cycle arrest in human A549 cells assessed as accumulation at S phase at 450 nM after 20 hrs by propidium iodide staining based flow cytometry (reference value: 16 +/- 1%). It counts as functional.
Data set [31] has as its system A549. The experiment in a line: Cell cycle arrest in human A549 cells assessed as accumulation at G2/M phase at 450 nM after 20 hrs by propidium iodide staining based flow cytometry (reference value: 11 +/- 1%). Type of data set: functional.

The IC50 is the concentration that gives 50% inhibition.

The source made the active and inactive calls. The rule behind the calls is not given here.

Regarding `COc1ccc(/C=C\c2cc(OC)c(OC)c(OC)c2)cc1NC(=O)Oc1cccc(Cl)c1C`, the IC50 with HT-29 came out at 47 nM; with MCF7, 39 nM; in the data set on HeLa, 23 nM; with A549 [1], 140 nM; in the data set with HL-60, 70 nM; in the data set with HMEC-1 it was 20 nM. The IC50 in the data set with HEK293 and in the data set with MDA-MB-231 was 14 nM in each case. For the same molecule, the Activity in the data set with A549 [2] was 20%; in the data set on A549 [3], 24%; in the data set with A549 [4] it was 18%; in the data set on A549 [5], 39%.

In the case of `COc1ccc(/C=C\c2cc(OC)c(OC)c(OC)c2)cc1NC(=O)Oc1ccc(C)c(Cl)c1`, the IC50 is 23 nM in the data set with HT-29; 6.1 nM in the data set on MCF7; 3.7 nM in the data set on HeLa; 90 nM in the data set on A549 [1]; 1.8 nM in the data set with HL-60; 6 nM with HMEC-1. Also, the IC50 in the data set with HEK293 amounted to 7 nM; in the data set with MDA-MB-231, 13.7 nM. For the same molecule, in the data set filed under Bos taurus, the inhibition entry is “Active”. Also, the Activity in the data set on A549 [6] worked out at 29%; in the data set with A549 [7], 21%; in the data set with A549 [8], 14%; in the data set on A549 [9], 36%; with A549 [10], 46%; in the data set with A549 [11], 23%. Also, the Activity result in the data set with A549 [12] is “Dose-dependent effect”.

As to `COc1ccc(/C=C\c2cc(OC)c(OC)c(OC)c2)cc1NC(=O)Oc1ccc(C(F)(F)F)cc1`, the IC50 in the data set with HT-29 turned out to be 27.6 nM; in the data set on MCF7, 9.2 nM; in the data set with HeLa, 21 nM; in the data set with A549 [1], 270 nM; in the data set on HL-60, 40 nM; with HMEC-1, 30 nM. Also, the IC50 in the data set with HEK293 was 57 nM; in the data set on MDA-MB-231 it was 21.5 nM. For the same molecule, the selectivity ratio in data set [13], in data set [14], in data set [15] and in [16] was 2 to 11 in each case. Moreover, the Activity in the data set on A549 [17] is reported as 26%; with A549 [18], 22%; with A549 [19], 14%; in the data set on A549 [20], 39%.

With `COc1ccc(/C=C\c2cc(OC)c(OC)c(OC)c2)cc1NC(=O)Oc1c(C)cccc1C`, the IC50 was 600 nM in the data set on HT-29; 440 nM with MCF7; 320 nM in the data set on HeLa; 3900 nM in the data set with A549 [1]; 470 nM in the data set on HL-60; 380 nM in the data set with HMEC-1. The IC50 in the data set with HEK293 was determined as 490 nM; in the data set with MDA-MB-231 it was 76 nM. The Activity came out at 23% in the data set on A549 [21], 25% in the data set with A549 [22] and 35% with A549 [23].

In the case of `COc1ccc(/C=C\c2cc(OC)c(OC)c(OC)c2)cc1NC(=O)Oc1ccc(C)c(C)c1`, the IC50 in the data set with HT-29 turned out to be 130 nM; with MCF7, 170 nM; with HeLa it was 21 nM; with A549 [1], 1300 nM; in the data set on HL-60, 69 nM; in the data set with HMEC-1, 130 nM. In addition, the IC50 was 97 nM with HEK293 and 41 nM with MDA-MB-231. The Activity in the data set on A549 [24] is 17%; in the data set on A549 [25], 24%; in the data set with A549 [26], 19%; in the data set with A549 [27], 41%.

On to `COc1ccc(/C=C\c2cc(OC)c(OC)c(OC)c2)cc1NC(=O)Oc1cccc(C)c1C`, for which the IC50 in the data set on HT-29 is 175 nM; in the data set on MCF7 it was 16 nM; in the data set on HeLa it was 40 nM; in the data set on A549 [1] it was 900 nM; in the data set on HL-60, 59 nM; in the data set on HMEC-1, 140 nM. Besides, the IC50 in the data set on HEK293 was determined as 80 nM; in the data set with MDA-MB-231, 66 nM. The Activity in the data set on A549 [28] was found to be 12%; with A549 [29] it was 24%; with A549 [30], 22%; in the data set with A549 [31] it was 42%.
